Measurements published in patent US11730720B2, “ALK5 inhibitors” (THERAVANCE BIOPHARMA R&D IP, LLC, priority 2018, dated 2023).

Columns and labels:
[1] = biological target: T1, recombinant human ALK5 (TGF-βR1) protein (Homo sapiens, UniProt P36897); assay: Biochemical ALK5 (TGF-βR1) assay to measure pKi (LANCE Ultra ULight kinase assay); details: apparent pKi, converted from pIC50 using the Cheng-Prusoff equation
T1 construct: purchased Life Technologies PR9075A
T1 sequence (P36897 34-503): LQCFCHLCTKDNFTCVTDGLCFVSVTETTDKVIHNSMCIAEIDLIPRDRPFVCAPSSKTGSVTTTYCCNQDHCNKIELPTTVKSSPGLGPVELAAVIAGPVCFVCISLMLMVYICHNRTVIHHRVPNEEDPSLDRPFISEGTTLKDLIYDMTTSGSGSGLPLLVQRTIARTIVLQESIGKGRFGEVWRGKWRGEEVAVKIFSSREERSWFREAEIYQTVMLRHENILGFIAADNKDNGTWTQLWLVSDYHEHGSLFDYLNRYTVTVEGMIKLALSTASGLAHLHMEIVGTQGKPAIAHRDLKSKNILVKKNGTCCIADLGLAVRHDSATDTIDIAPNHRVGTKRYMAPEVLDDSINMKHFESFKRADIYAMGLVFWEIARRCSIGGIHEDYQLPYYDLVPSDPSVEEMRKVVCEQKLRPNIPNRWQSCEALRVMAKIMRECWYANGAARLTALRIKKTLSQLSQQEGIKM
Description: Example 254: Biochemical ALK5 (TGF-βR1) Assay to Measure pKi
The assays were performed in a 384-well plate (24 columns×16 wells/rows). An Echo® 550 Liquid Handler (Labcyte) was used to prepare various intermediate concentrations of compounds of the present disclosure in 100% DMSO. From the intermediate concentrations, a range of concentrations (from 10 μM to 25 pM corresponding to volumes up to 105 nL) were prepared and ejected into a final assay plate to be used to create individual dose response curves for each of the subject compounds. To a separate column within the assay plate, 105 nL of DMSO in each well was used to establish a maximum assay signal. Additionally, 105 nL of 100 μM SD-208, a selective TGF-βR1 inhibitor (Catalog #S7624, Selleck Chemicals), was used in another column of wells to establish a minimal assay signal.
With a multidrop dispenser, 8 μL of enzyme mixture (1.25× final) was added to each well. The enzyme mixture consisted of 250 pM ALK5 enzyme and 62.5 nM peptide substrate (LANCE® (lanthanide chelate excite) Ultra ULight™-DNA Topoisomerase 2-alpha (Thr1342)) prepared in assay buffer (50 mM HEPES, 10 mM MgCl2, 1 mM EGTA, 0.01% Tween-20, pH 7.5 at room temperature) with 2 mM DTT added prior to use. The plate was then sealed with an adhesive seal and allowed to equilibrate for 60 minutes at room temperature.
Next, 2 μL of 125 μM ATP (5× final, 125 μM ATP prepared in assay buffer with 2 mM DTT) was added to the incubated mixtures, covered with a MicroClime® Environmental Lid (Product No. LLS-0310, Labcyte) and immediately transferred to 37° C. The reactions were allowed to proceed at 37° C. for 60 minutes before terminating with the addition of 10 μL of detection antibody (LANCE® (lanthanide chelate excite) Ultra Europium-anti-phospo-DNA Topoisomerase 2-alpha (Thr1342)) in detection mixture (12 mM EDTA, 4 nM detection antibody prepared in detection buffer (50 mM Tris-HCl, 150 mM NaCl, 0.5% BSA (Fraction V), pH 7.0)) at room temperature. The plate was then read on a Perkin Elmer EnVision Plate Reader using europium specific reader settings with excitation and emission wavelengths set to 320 or 340 nm and 665 nm, respectively.
For dose-response analyses, percent inhibition versus compound concentrations were plotted, and pIC50 values were determined from a 4-parameter robust fit model with GraphPad Prism V5 Software (GraphPad Software, Inc., La Jolla, Calif.). This model obtains pIC50 values by fitting the sigmodial dose-response (variable slope) equation to the data. Results were expressed as pIC50 (negative logarithm of IC50) and subsequently converted to pKi (negative logarithm of dissociate constant, K) using the Cheng-Prusoff equation.
The higher the value of pKi (lower value of Ki), the greater the inhibition of ALK5 activity.

[2] = test system: TGF-β-stimulated SMAD3 phosphorylation in BEAS-2B cells; assay: Cellular ALK5 potency assay, inhibition of TGF-β stimulated pSMAD3 formation in BEAS-2B cells; format: cell-based; details: Homo sapiens, inhibition of TGF-β (10 ng/mL) stimulated pSMAD3 formation, 1 hour compound incubation, read-out: BEAS2B pIC50 (converted)
Description: Example 255: Cellular ALK5 Potency Assay to Measure pIC50, Inhibition of TGF-β Stimulated pSMAD3 Formation in BEAS-2B Cells
The potency of compounds of the present disclosure for inhibition of TGF-β-stimulated SMAD3 phosphorylation was measured in BEAS-2B cells, a human lung epithelial cell line. TGF-β signals through activin receptor-like kinase 5 (ALK5) immediately prior to SMAD3 phosphorylation.
BEAS-2B cells were grown using 50% DMEM (Life Technologies) and 50% F-12 (Life Technologies) media, supplemented with 10% Fetal Bovine Serum (ATCC), 25 mM HEPES (Life Technologies), and 1×Pen-Strep (Life Technologies). Cells were cultured in a humidified incubator set at 37° C., 5% CO2, and trypsonized using 0.25% Trypsin with 0.5% polyvinylpyrrolidone (PVP).
For the assay, BEAS-2B cells were seeded at 7,500 cells/well (25 μL/well) in a 384-well plate and cultured overnight. Before dosing, growth media was aspirated and the wells were rinsed with HBSS Buffer (HBSS with Calcium and Magnesium, Life Technologies) supplemented with 25 mM HEPES (Life Technologies) and 1% Bovine Serum Albumin (Roche). Compounds were serially diluted in DMSO, then further diluted with supplemented HBSS Buffer (50 μL/well) to create a compound plate 3× of the final assay concentration, at 0.3% DMSO. The diluted compounds were then added to the cells (8 μL/well) and incubated at 37° C., 5% CO2 for 1 hour. After the compound incubation, TGF-β (R&D Systems) reconstituted in supplemented HBSS Buffer was added to the cells ([…], final concentration 10 ng/mL) and incubated for a further 30 minutes, after which the cells were immediately lysed with AlphaLISA lysis buffer (PerkinElmer). AlphaLISA Acceptor and Detector beads (PerkinElmer) were added 2 hours apart, then incubated overnight to be read the next day. The potency of the compound was determined through analysis of dose-dependent quantified changes in pSMAD3 signal from baseline (non-compound treated TGF-β stimulated cells). Data are expressed as pIC50 (negative decadic logarithm IC50) values.

Structure (SMILES)	Ki [1] [nM]	IC50 [2] [nM]
Fc1ccc(Cl)cc1-c1[nH]cnc1-c1ccc2ncc(-c3cn4c(n3)CNCC4)cc2c1 [Compound 17-14, 6-[5-(5-chloro-2-fluoro-phenyl)-1H-imidazol-4-yl]-3-(5,6,7,8-tetrahydroimidazo[1,2-a]pyrazin-2-yl)quinoline]	0.0398 to 0.316	25.1 to 158
CNCCn1cc(-c2cnc3ccc(-c4c[nH]nc4-c4cc(O)ccc4C)nc3c2)cn1 [Compound 13-1, 4-methyl-3-(4-(7-(1-(2-(methylamino)ethyl)-1H-pyrazol-4-yl)-1,5-naphthyridin-2-yl)-1H-pyrazol-3-yl)phenol]	0.398 to 3.16	200 to 1260
CNCCn1ccc(-c2cnc3ccc(-c4c[nH]nc4-c4ccc(F)c(F)c4)nc3c2)n1 [Compound 8-14, 2-[3-[6-[3-(3,4-difluorophenyl)-1H-pyrazol-4-yl]-1,5-naphthyridin-3-yl]pyrazol-1-yl]-N-methyl-ethanamine]	0.398 to 3.16	25.1 to 158
CN1CCC(Nc2cnc3ccc(-c4c[nH]nc4-c4cc(Cl)ccc4F)nc3c2)C1 (stereo not drawn) [Compound 1-4, 6-[3-(5-chloro-2-fluoro-phenyl)-1H-pyrazol-4-yl]-N-(1-methylpyrrolidin-3-yl)-1,5-naphthyridin-3-amine]	0.398 to 3.16	25.1 to 158
NC1CN(c2cnc3ccc(-c4c[nH]nc4-c4cc(Cl)ccc4F)nc3c2)C1 [Compound 1-52, 1-[6-[3-(5-chloro-2-fluoro-phenyl)-1H-pyrazol-4-yl]-1,5-naphthyridin-3-yl]azetidin-3-amine]	0.0398 to 0.316	≤ 20
CC(CO)N1CCN(CCNc2cnc3ccc(-c4c[nH]nc4-c4cc(Cl)c(F)cc4F)nc3c2)CC1 (stereo not drawn) [Compound 6-72, 2-[4-[2-[[6-[3-(5-chloro-2,4-difluoro-phenyl)-1H-pyrazol-4-yl]-1,5-naphthyridin-3-yl]amino]ethyl]piperazin-1-yl]propan-1-ol]	0.0398 to 0.316	25.1 to 158
Fc1ccc(-c2n[nH]cc2-c2ccc3ncc(C4=CCC(NCc5ccccc5)CC4)cc3n2)cc1F (stereo not drawn) [Compound 8-26, N-benzyl-4-[6-[3-(3,4-difluorophenyl)-1H-pyrazol-4-yl]-1,5-naphthyridin-3-yl]cyclohex-3-en-1-amine]	0.0398 to 0.316	25.1 to 158
CN(CCN1CCNCC1)c1cnc2ccc(-c3c[nH]nc3-c3cc(Cl)ccc3F)nc2c1 [Compound 1-53, 6-[3-(5-chloro-2-fluoro-phenyl)-1H-pyrazol-4-yl]-N-methyl-N-(2-piperazin-1-ylethyl)-1,5-naphthyridin-3-amine]	0.0398 to 0.316	25.1 to 158
Fc1cc(F)c(-c2n[nH]cc2-c2ccc3ncc(NC4CCNCC4)cc3n2)cc1Cl [Compound 6-10, 6-[3-(5-chloro-2,4-difluoro-phenyl)-1H-pyrazol-4-yl]-N-(4-piperidyl)-1,5-naphthyridin-3-amine]	0.0398 to 0.316	200 to 1260
Fc1cc(F)c(-c2n[nH]cc2-c2ccc3ncc(NCC4CCCCN4)cc3n2)cc1Cl (stereo not drawn) [Compound 6-8, 6-[3-(5-chloro-2,4-difluoro-phenyl)-1H-pyrazol-4-yl]-N-(2-piperidylmethyl)-1,5-naphthyridin-3-amine]	0.398 to 3.16	25.1 to 158
Fc1ccc(Cl)cc1-c1n[nH]cc1-c1ccc2ncc(NC3CNC3)cc2n1 [Compound 1-18, N-(azetidin-3-yl)-6-[3-(5-chloro-2-fluoro-phenyl)-1H-pyrazol-4-yl]-1,5-naphthyridin-3-amine]	0.0398 to 0.316	25.1 to 158
Cn1cccc(-c2cnc3ccc(-c4c[nH]nc4-c4cc(Cl)ccc4F)nc3c2)c1=O [Compound 1-90, 3-(6-(3-(5-chloro-2-fluorophenyl)-112-pyrazol-4-yl)-1,5-naphthyridin-3-yl)-1-methylpyridin-2(1H)-one]	0.0398 to 0.316	≤ 20
CC(C)N1CCN(c2ccc(Nc3cnc4ccc(-c5c[nH]nc5-c5cc(Cl)ccc5F)nc4c3)nc2)CC1 [Compound 1-30, 6-(3-(5-chloro-2-fluorophenyl)-1H-pyrazol-4-yl)-N-(5-(4-isopropylpiperazin-1-yl)pyridin-2-yl)-1,5-naphthyridin-3-amine]	0.0398 to 0.316	25.1 to 158
CNC1CCN(c2cnc3ccc(-c4c[nH]nc4-c4cc(Cl)c(F)cc4F)nc3c2)CC1 [Compound 6-23, 1-(6-(3-(5-chloro-2,4-difluorophenyl)-1H-pyrazol-4-yl)-1,5-naphthyridin-3-yl)-N-methylpiperidin-4-amine]	0.0398 to 0.316	25.1 to 158
Fc1ccc(Cl)cc1-c1n[nH]cc1-c1ccc2ncc(-c3cnc4n3CCN4)cc2n1 [Compound 1-106, 2-[3-(5-chloro-2-fluoro-phenyl)-1H-pyrazol-4-yl]-7-(6,7-dihydro-5H-imidazo[1,2-a]imidazol-3-yl)-1,5-naphthyridine]	≤ 0.0316	25.1 to 158
CNCCn1cc(-c2cnc3ccc(-c4c[nH]nc4-c4cc(Cl)c(F)cc4F)nc3c2)nn1 [Compound 6-67, 2-[4-[6-[3-(5-chloro-2,4-difluoro-phenyl)-1H-pyrazol-4-yl]-1,5-naphthyridin-3-yl]triazol-1-yl]-N-methyl-ethanamine]	≤ 0.0316	25.1 to 158
CC(C)N1CCN(CCNc2cnc3ccc(-c4c(-c5cc(Cl)ccc5F)nc5ccccn45)nc3c2)CC1 [Compound 3-1, 6-(2-(5-chloro-2-fluorophenyl)imidazo[1,2-a]pyridin-3-yl)-N-(2-(4-isopropylpiperazin-1-yl)ethyl)-1,5-naphthyridin-3-amine]	0.0398 to 0.316	25.1 to 158
CN(C)C1CN(c2cnc3ccc(-c4c[nH]nc4-c4cc(Cl)c(F)cc4F)nc3c2)C1 [Compound 6-19, 1-[6-[3-(5-chloro-2,4-difluoro-phenyl)-1H-pyrazol-4-yl]-1,5-naphthyridin-3-yl]-N,N-dimethyl-azetidin-3-amine]	0.0398 to 0.316	25.1 to 158
